Experimental data as given in patent publication US20240327393A1 (SIRONAX LTD., priority 2021, published 2024).

What follows are compounds tested on HT-1080 (ATCC, CCL-121) cells (assay: HT-1080 cell viability assay with ferroptosis inducer RSL3 (Cell Titer-Glo)). Conditions: Homo sapiens; HT-1080 cells treated with RSL3; 3-fold, 10-point dilution, 1.1 μM highest concentration; Table 2; read-out: EC50 (nM), ferroptosis inhibitory activity.
Format: cell-based
Procedure, shortened: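 HT-1080 cells (6000 per well) were cultured overnight at 37 °C, then co-treated with RSL3 and compound in a 3-fold, 10-point series topping at 1.1 μM. Viability was read by CellTiter-Glo luminescence and normalized to untreated controls. EC50 came from a sigmoidal non-linear regression fit.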

| Structure (SMILES) | EC50 [nM] |
| --- | --- |
| CC1CN(c2ccc(Nc3ccc4nnn(C)c4c3)cc2)CC(C)O1 (centres unmarked) [Compound 133, N-(4-(2,6-dimethylmorpholino)phenyl)-1-methyl-1H-benzo[d][1,2,3]triazol-6-amine] | 100 to 1000 |
| Cn1c(=O)n(C)c2cc(Nc3ccc(-n4ccnc4)cc3)ccc21 [Compound 305, 5-((4-(1H-imidazol-1-yl)phenyl)amino)-1,3-dimethyl-1,3-dihydro-2H-benzo[d]imidazol-2-one] | 100 to 1000 |
| CC1CN(c2ccc(Nc3ccc4c(c3)OCC(=O)N4CCN(C)C)cc2)CC(C)O1 (centres unmarked) [Compound 80, 4-(2-(dimethylamino)ethyl)-7-((4-(2,6-dimethylmorpholino)phenyl)amino)-2H-benzo[b][1,4]oxazin-3(4H)-one] | 0.1 to 100 |
| Cn1c(=O)n(C)c2cc(Nc3ccc(N4CCC(F)CC4)cc3)ccc21 [Compound 299, 5-((4-(4-fluoropiperidin-1-yl)phenyl)amino)-1,3-dimethyl-1,3-dihydro-2H-benzo[d]imidazol-2-one] | 0.1 to 100 |
| Cn1c(=O)n(C)c2cc(Nc3cnc(N4CCC(C(F)(F)F)CC4)c(F)c3)ccc21 [Compound 378, 5-((5-fluoro-6-(4-(trifluoromethyl)piperidin-1-yl)pyridin-3-yl)amino)-1,3-dimethyl-1,3-dihydro-2H-benzo[d]imidazol-2-one] | 0.1 to 100 |
| CC(C)(C)C(=O)N1CCOc2cc(Nc3ccc(N4CCC(C(F)(F)F)CC4)cc3)ccc21 [Compound 18, 2,2-dimethyl-1-(7-((4-(4-(trifluoromethyl)piperidin-1-yl)phenyl)amino)-2,3-dihydro-4H-benzo[b][1,4]oxazin-4-yl)propan-1-one] | 0.1 to 100 |
| CN(C)CCn1c(=O)n(C)c2cc(Nc3ccc(N4CCC(C(F)(F)F)CC4)cc3)ccc21 [Compound 355, 1-(2-(dimethylamino)ethyl)-3-methyl-5-((4-(4-(trifluoromethyl)piperidin-1-yl)phenyl)amino)-1,3-dihydro-2H-benzo[d]imidazol-2-one] | 0.1 to 100 |
| CCOC(=O)c1ccc(Nc2ccc3c(c2)n(C)c(=O)n3C)cc1 [Compound 306, ethyl 4-((1,3-dimethyl-2-oxo-2,3-dihydro-1H-benzo[d]imidazol-5-yl)amino)benzoate] | 100 to 1000 |
| CN1Cc2cc(Nc3ccc(N4CCC(C(F)(F)F)CC4)cc3)ccc2N(C)C1=O [Compound 112, 1,3-dimethyl-6-((4-(4-(trifluoromethyl)piperidin-1-yl)phenyl)amino)-3,4-dihydroquinazolin-2(1H)-one] | 0.1 to 100 |
| Cc1nc(=O)n(C)c2ccc(Nc3ccc(N4CCC(C(F)(F)F)CC4)cc3)cc12 [Compound 113, 1,4-dimethyl-6-((4-(4-(trifluoromethyl)piperidin-1-yl)phenyl)amino) quinazolin-2(1H)-one] | 0.1 to 100 |

Now from value to compound:

| EC50 [nM] | Structure (SMILES) |
| --- | --- |
| 0.1 to 100 | Cn1c(=O)n(C)c2cc(Nc3ccc(C(C)(C)C)cc3)ccc21 [Compound 261, 5-((4-(tert-butyl)phenyl)amino)-1,3-dimethyl-1,3-dihydro-2H-benzo[d]imidazol-2-one] |
| 0.1 to 100 | NC(=O)NCCn1c(=O)oc2ccc(Nc3ccc(N4CCC(C(F)(F)F)CC4)cc3)cc21 [Compound 417, 1-(2-(2-oxo-5-((4-(4-(trifluoromethyl)piperidin-1-yl)phenyl)amino)benzo[d]oxazol-3(2H)-yl)ethyl)urea] |
| 0.1 to 100 | CN1C(=O)CCc2cc(Nc3ccc(N4CCC(C(F)(F)F)CC4)cc3)ccc21 [Compound 127, 1-methyl-6-((4-(4-(trifluoromethyl)piperidin-1-yl)phenyl)amino)-3,4-dihydroquinolin-2(1H)-one] |
| 0.1 to 100 | CN1C(=O)COc2cc(Nc3cc(F)c(N4CCC(C(F)(F)F)CC4)c(F)c3)ccc21 [Compound 57, 7-((3,5-difluoro-4-(4-(trifluoromethyl)piperidin-1-yl)phenyl)amino)-4-methyl-2H-benzo[b][1,4]oxazin-3(4H)-one] |
| 0.1 to 100 | Cc1cc(Nc2ccc3c(c2)OCC(=O)N3C)cc(C)c1N1CCC(C(F)(F)F)CC1 [Compound 155, 7-((3,5-dimethyl-4-(4-(trifluoromethyl)piperidin-1-yl)phenyl)amino)-4-methyl-2H-benzo[b][1,4]oxazin-3(4H)-one] |
| 0.1 to 100 | CC1CN(c2ccc(Nc3ccc4c(C(N)=O)cn(C)c4c3)cc2)CC(C)O1 (centres unmarked) [Compound 442, 6-((4-(2,6-dimethylmorpholino)phenyl)amino)-1-methyl-1H-indole-3-carboxamide] |
| 0.1 to 100 | CN1C(=O)COc2cc(Nc3ccc(OCCCF)cc3)ccc21 [Compound 13, 7-((4-(3-fluoropropoxy)phenyl)amino)-4-methyl-2H-benzo[b][1,4]oxazin-3(4H)-one] |
| 0.1 to 100 | COC1(C(F)(F)F)CCN(c2ccc(Nc3ccc4oc(=O)n(C)c4c3)cc2)CC1 [Compound 390, 5-((4-(4-methoxy-4-(trifluoromethyl)piperidin-1-yl)phenyl)amino)-3-methylbenzo[d]oxazol-2(3H)-one] |
| 0.1 to 100 | Cn1ccc2ccc(Nc3ccc(N4CCC(C(F)(F)F)CC4)cc3)cc21 [Compound 348, 1-methyl-N-(4-(4-(trifluoromethyl)piperidin-1-yl)phenyl)-1H-indol-6-amine] |
| 0.1 to 100 | CC1CCN(c2ccc(Nc3cc4c(c([N+](=O)[O-])c3)CN(C(=O)C(F)(F)F)C4)cc2)CC1 [Compound 255, 2,2,2-trifluoro-1-(6-((4-(4-methylpiperidin-1-yl)phenyl)amino)-4-nitroisoindolin-2-yl)ethan-1-one] |
| 0.1 to 100 | FC(F)(F)C1CCN(c2ccc(Nc3ccc4cnoc4c3)cc2)CC1 [Compound 358, N-(4-(4-(trifluoromethyl)piperidin-1-yl)phenyl)benzo[d]isoxazol-6-amine] |
| 0.1 to 100 | C/N=C1\c2ccc(Nc3ccc(N4CCC(C(F)(F)F)CC4)cc3)cc2CN1C [Compound 313, 2-methyl-1-(methylimino)-N-(4-(4-(trifluoromethyl)piperidin-1-yl)phenyl)isoindolin-5-amine] |
| 0.1 to 100 | Cc1c(Nc2ccc3c(c2)OCC(=O)N3C)ccc(N2CCC(C(F)(F)F)CC2)c1F [Compound 63, 7-((3-fluoro-2-methyl-4-(4-(trifluoromethyl)piperidin-1-yl)phenyl)amino)-4-methyl-2H-benzo[b][1,4]oxazin-3(4H)-one] |
| 0.1 to 100 | Cn1c(=O)n(C)c2cc(Nc3ccc(N4CCC(CF)CC4)cc3)ccc21 [Compound 385, 5-((4-(4-(fluoromethyl)piperidin-1-yl)phenyl)amino)-1,3-dimethyl-1,3-dihydro-2H-benzo[d]imidazol-2-one] |
| 0.1 to 100 | CCCCCN(CCCCOC)c1ccc(Nc2ccc3c(c2)OCC(=O)N3C)cc1 [Compound 4, 7-((4-((4-methoxybutyl)(pentyl)amino)phenyl)amino)-4-methyl-2H-benzo[b][1,4]oxazin-3(4H)-one] |
| 0.1 to 100 | CC1CN(c2ccc(Nc3ccc4c(c3)OC(C)C(=O)N4)cc2)CC(C)O1 (centres unmarked) [Compound 139, 7-((4-(2,6-dimethylmorpholino)phenyl)amino)-2-methyl-2H-benzo[b][1,4]oxazin-3(4H)-one] |
| 0.1 to 100 | FC(F)(F)C1CCN(c2ccc(Nc3ccc4ocnc4c3)cc2)CC1 [Compound 359, N-(4-(4-(trifluoromethyl)piperidin-1-yl)phenyl)benzo[d]oxazol-5-amine] |
| 0.1 to 100 | CC1CCN(c2ccc(Nc3ccc4ccn(C)c4c3)cc2)CC1 [Compound 330, 1-methyl-N-(4-(4-methylpiperidin-1-yl)phenyl)-1H-indol-6-amine] |

Same assay, conditions: Homo sapiens; HT-1080 cells treated with RSL3; 3-fold, 10-point dilution, 1.1 μM highest concentration; Table 3; read-out: EC50 (nM), ferroptosis inhibitory activity

| Structure (SMILES) | EC50 [nM] |
| --- | --- |
| Cc1cc(N2CCN(CC(F)(F)F)CC2)ccc1Nc1ccc2c(c1)OCC(=O)N2 [Compound 569, 7-((2-methyl-4-(4-(2,2,2-trifluoroethyl)piperazin-1-yl)phenyl)amino)-2H-benzo[b][1,4] oxazin-3(4H)-one] | 0.1 to 100 |
| Cc1cc(N2CCC(C(F)(F)F)CC2)ccc1Nc1ccc2c(c1)CN(CC(N)=O)C2 [Compound 579, 2-(5-((2-methyl-4-(4-(trifluoromethyl)piperidin-1-yl)phenyl)amino)isoindolin-2-yl)acetamide] | 0.1 to 100 |
| Cc1cc(N2CC(F)(F)C2)ccc1Nc1ccc2c(c1)OCC(N)C(=O)N2 (centres unmarked) [Compound 627, 3-amino-8-((4-(3,3-difluoroazetidin-1-yl)-2-methylphenyl)amino)-2,3-dihydrobenzo[b][1,4]oxazepin-4(5H)-one] | 0.1 to 100 |
| Cc1cc(N2CCC(C)CC2)ccc1Nc1ccc2c(c1)OCC(=O)N2C [Compound 490, 4-methyl-7-((2-methyl-4-(4-methylpiperidin-1-yl)phenyl)amino)-2H-benzo[b][1,4]oxazin-3(4H)-one] | 0.1 to 100 |
| O=C1COc2cc(Nc3ccc(N4CCCCC4)cc3)ccc2N1 [Compound 517, 7-(4-(piperidin-1-yl)phenylamino)-2H-benzo[b][1,4]oxazin-3(4H)-one] | 0.1 to 100 |
| CC(C)(O)C1CCN(c2ccc(Nc3ccc4c(c3)OCC(=O)N4)cc2)CC1 [Compound 543, 7-((4-(4-(2-hydroxypropan-2-yl)piperidin-1-yl)phenyl)amino)-2H-benzo[b][1,4]oxazin-3(4H)-on] | 0.1 to 100 |
| Cc1cc(N2CC(F)(F)C(F)(F)C2)ccc1Nc1ccc2c(c1)OCC(=O)N2 [Compound 636, 7-((2-methyl-4-(3,3,4,4-tetrafluoropyrrolidin-1-yl)phenyl)amino)-2H-benzo[b][1,4]oxazin-3(4H)-on] | 0.1 to 100 |
| Cc1cc(N2C[C@@H](C)O[C@@H](C)C2)ccc1Nc1ccc2cn(C)nc2c1 [Compound 637, N-(4-((2S,6R)-2,6-dimethylmorpholino)-2-methylphenyl)-2-methyl-2H-indazol-6-amine] | 0.1 to 100 |
| COCCOC1CCN(c2ccc(Nc3ccc4c(c3)OCC(=O)N4)c(C)c2)CC1 [Compound 505] | 0.1 to 100 |
| CCC1Oc2cc(Nc3ccc(N4CCC(C(F)(F)F)CC4)cc3C)ccc2NC1=O (centres unmarked) [Compound 483, 2-ethyl-7-((2-methyl-4-(4-(trifluoromethyl)piperidin-1-yl)phenyl)amino)-2H-benzo[b][1,4]oxazin-3(4H)-one] | 0.1 to 100 |
